The text below walks through data of patent US20250145606A1 (Arcus Biosciences, Inc., priority 2023, published 2025).

Series [1] has as its target c-Kit (Homo sapiens (Human), UniProt P10721). Nature of the series: Inhibition of c-Kit kinase activity (HTRF KinEASE-TK). In kind it is biochemical. Conditions: biochemical, HTRF KinEASE-TK. An outline of the steps:
(§1)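 Human kinases were preincubated 1 h at rt with a 22-point 1:2 compound titration, then run 120 min at rt with biotinylated TK peptide and ATP (2× mix: c-Kit 16 μM, PDGFRα 1 μM, PDGFRβ 40 μM, CSF1R 20 μM). Phosphopeptide was read by HTRF TR-FRET (665/620 nm), and IC50s came from 4-parameter fits.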
In general terms: In TR-FRET formats the signal depends on donor and acceptor labels being close together.

Series [2] concerns the target PDGFRα (Homo sapiens (Human), UniProt P16234). Nature of the series: Inhibition of PDGFRα kinase activity (HTRF KinEASE-TK). As to conditions: biochemical, HTRF KinEASE-TK. The gist of the method:
as §1

Series [3] concerns the target PDGFRβ (Homo sapiens (Human), UniProt P09619). Nature of the series: Inhibition of PDGFRβ kinase activity (HTRF KinEASE-TK). As to conditions: biochemical, HTRF KinEASE-TK. The gist of the method: as §1
Series [4] has as its target CSF1R (Homo sapiens (Human), UniProt P07333). Nature of the series: Inhibition of CSF1R kinase activity (HTRF KinEASE-TK). Conditions: biochemical, HTRF KinEASE-TK. The gist of the method:
as §1

Series [5] relates to Sprague Dawley rat hepatocytes. Kind of series: Bioactivation assessment in rat hepatocytes. In kind it is in vitro ADME. As to conditions: 5 μM, 4 hours. As for the experimental part:
(§2) Bioactivation Assessment Procedure
(§3) Pooled male Sprague Dawley rat (BioIVT), male beagle dog (BioIVT), male cynomolgus monkey (BioIVT), and a 50-donor pool of cryopreserved human hepatocytes (BioIVT) was thawed in pre-warmed 37° C. InVitroGro™ HT media (BioIVT), centrifuged, and resuspended in the InVitroGro™ HI media (BioIVT). The number of viable cells was determined by the Trypan blue exclusion method. The cells were diluted to a concentration of two million viable cells per milliliter (viability >80%) and seeded into round-bottom 96-well plates. The test articles were dissolved in DMSO and further diluted in 50% CH3CN and InVitroGro™ HI media with final concentrations of 0.05% DMSO and 0.5% CH3CN in the incubation mixture. Incubation was performed at a final concentration of one million cells per milliliter and 5 μM test compounds with continuous shaking at 1100 rpm in a 37° C., 5/95% CO2/air incubator with 100% relative humidity. After 4 hours, the samples were quenched by addition of 3 volumes of CH3CN, vortexed for 15 minutes, and centrifuged at 4200 rpm for 15 minutes at 10° C. (Sorvall Legend XTR centrifuge, Thermo Scientific, Langenselbold, Germany). 80 μL of the resulting supernatant was transferred into a new plate and mixed with 160 μL water followed by liquid chromatography-high resolution mass spectrometry (LC-HRMS) analysis.
(§4) Structural assignments of metabolites were determined through mass spectral analysis. The level of bioactivation was estimated based on the relative peak area of bioactivation products to all identified metabolites. The following equation was used: […]
(§5) Bioactivation products included glutathione conjugates, imine methides, quinones, diols, and other relevant metabolites.

Series [6] concerns beagle dog hepatocytes. Nature of the series: Bioactivation assessment in dog hepatocytes. In kind it is in vitro ADME. Conditions: 5 μM, 4 hours. The method, then:
as §2, §3, §4, §5

For series [7], the system named is human hepatocytes. Nature of the series: Bioactivation assessment in human hepatocytes. Format: in vitro ADME. As to conditions: 5 μM, 4 hours. The method, then:
as §2, §3, §4, §5

Series [8] has as its target FLT3 (Homo sapiens (Human), UniProt P36888). Nature of the series: Inhibition of FLT3 kinase activity (HTRF KinEASE-TK). Format: biochemical. As to conditions: biochemical, HTRF KinEASE-TK. An outline of the steps:
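FLT3 tyrosine kinase activity was measured with the HTRF KinEASE-TK kit by following phosphorylation of a biotinylated TK peptide. After the 45 min reaction, 10 μL of detection mix was added: 0.2 μM (2×) Streptavidin-XL665 and 2 μM (2×) TK-Antibody-Cryptate in detection buffer. After 60 min, TR-FRET was read on an Envision as the 665 nm/620 nm emission ratio with 320 nm excitation.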

The test system of series [9] is Phospho-KIT (Y703) in M07e cells. Nature of the series: Phospho-KIT (Y703) cellular assay in M07e cells. In kind it is cell-based. Conditions: M-07e, M07e cells. An outline of the steps:
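Serum-starved M07e cells preincubated 50 min at 37° C with 11-point half-log compound titration, then stimulated 10 min with SCF at 90.9 ng/mL final. Fixed, permeabilized cells stained for phospho-KIT Y703 and read by flow cytometry (live-gated geometric mean); IC50 by 4-parameter fit normalized to DMSO and positive control.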

Series [10] concerns cynomolgus monkey hepatocytes. Nature of the series: Bioactivation assessment in monkey hepatocytes. Format: in vitro ADME. Conditions: 5 μM, 4 hours. The method, then:
as §2, §3, §4, §5

[11] abbreviates: Phospho-KIT (Y703), read-out: M07e Cell IC50.
The mark [12] stands for this setting: read-out: Phospho-KIT (Y703) cellular IC50.

pIC50: −log10 of the molar value. Like-named read-outs stand apart in the source and are kept apart here.

Chain of c-Kit (P10721 26-976): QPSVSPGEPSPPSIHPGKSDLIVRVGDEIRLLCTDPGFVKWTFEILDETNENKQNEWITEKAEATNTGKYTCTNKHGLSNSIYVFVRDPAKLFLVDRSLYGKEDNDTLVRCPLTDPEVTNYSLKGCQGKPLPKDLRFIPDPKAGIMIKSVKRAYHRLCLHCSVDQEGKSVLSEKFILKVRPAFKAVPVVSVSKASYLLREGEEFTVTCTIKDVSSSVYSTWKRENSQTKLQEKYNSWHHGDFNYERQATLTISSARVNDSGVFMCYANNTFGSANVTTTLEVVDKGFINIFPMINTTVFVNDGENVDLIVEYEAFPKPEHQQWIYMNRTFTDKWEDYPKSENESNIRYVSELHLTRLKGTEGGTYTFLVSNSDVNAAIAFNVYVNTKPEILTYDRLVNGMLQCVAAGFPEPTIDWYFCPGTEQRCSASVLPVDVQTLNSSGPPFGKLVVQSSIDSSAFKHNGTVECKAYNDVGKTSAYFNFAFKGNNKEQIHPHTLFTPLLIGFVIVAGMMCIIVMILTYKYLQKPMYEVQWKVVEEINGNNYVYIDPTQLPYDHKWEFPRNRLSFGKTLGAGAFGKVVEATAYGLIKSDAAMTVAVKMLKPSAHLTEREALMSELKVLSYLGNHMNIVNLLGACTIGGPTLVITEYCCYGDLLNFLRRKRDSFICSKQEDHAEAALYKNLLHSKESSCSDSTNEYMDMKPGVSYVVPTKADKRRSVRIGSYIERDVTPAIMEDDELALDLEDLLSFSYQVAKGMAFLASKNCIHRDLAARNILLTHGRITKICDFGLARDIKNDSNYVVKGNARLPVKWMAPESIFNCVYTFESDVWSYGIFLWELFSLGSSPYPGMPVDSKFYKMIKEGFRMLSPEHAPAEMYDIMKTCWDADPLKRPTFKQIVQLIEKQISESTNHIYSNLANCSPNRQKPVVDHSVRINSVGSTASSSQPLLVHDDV
Chain of PDGFRβ (P09619 33-1106): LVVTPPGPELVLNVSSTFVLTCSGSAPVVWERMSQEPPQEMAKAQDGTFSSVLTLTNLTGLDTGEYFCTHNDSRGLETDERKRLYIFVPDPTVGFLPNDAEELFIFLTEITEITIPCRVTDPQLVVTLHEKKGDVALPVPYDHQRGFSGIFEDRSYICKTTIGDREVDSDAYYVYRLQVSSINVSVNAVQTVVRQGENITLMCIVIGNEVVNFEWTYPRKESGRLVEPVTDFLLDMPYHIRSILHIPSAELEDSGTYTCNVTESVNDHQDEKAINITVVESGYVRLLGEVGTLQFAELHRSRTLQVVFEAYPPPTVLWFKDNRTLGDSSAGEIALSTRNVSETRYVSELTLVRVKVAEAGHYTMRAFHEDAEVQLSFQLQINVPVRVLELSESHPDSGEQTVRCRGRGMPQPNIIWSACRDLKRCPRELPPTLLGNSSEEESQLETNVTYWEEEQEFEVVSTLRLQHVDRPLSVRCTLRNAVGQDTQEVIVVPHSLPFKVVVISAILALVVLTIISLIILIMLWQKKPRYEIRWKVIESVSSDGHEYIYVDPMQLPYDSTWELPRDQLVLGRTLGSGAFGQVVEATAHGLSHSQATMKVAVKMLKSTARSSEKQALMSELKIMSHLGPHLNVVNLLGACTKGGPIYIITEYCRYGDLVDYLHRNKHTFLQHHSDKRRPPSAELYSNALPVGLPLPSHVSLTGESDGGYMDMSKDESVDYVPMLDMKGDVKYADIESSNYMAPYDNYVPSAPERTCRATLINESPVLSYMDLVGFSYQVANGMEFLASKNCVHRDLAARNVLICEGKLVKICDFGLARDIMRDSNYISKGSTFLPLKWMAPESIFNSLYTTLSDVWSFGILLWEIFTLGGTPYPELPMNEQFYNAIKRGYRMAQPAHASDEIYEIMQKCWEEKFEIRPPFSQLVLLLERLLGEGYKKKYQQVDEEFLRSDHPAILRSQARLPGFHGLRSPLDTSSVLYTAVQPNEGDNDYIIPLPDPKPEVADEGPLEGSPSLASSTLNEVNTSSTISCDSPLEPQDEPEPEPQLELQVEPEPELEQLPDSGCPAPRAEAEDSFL
Chain of CSF1R (P07333 20-972): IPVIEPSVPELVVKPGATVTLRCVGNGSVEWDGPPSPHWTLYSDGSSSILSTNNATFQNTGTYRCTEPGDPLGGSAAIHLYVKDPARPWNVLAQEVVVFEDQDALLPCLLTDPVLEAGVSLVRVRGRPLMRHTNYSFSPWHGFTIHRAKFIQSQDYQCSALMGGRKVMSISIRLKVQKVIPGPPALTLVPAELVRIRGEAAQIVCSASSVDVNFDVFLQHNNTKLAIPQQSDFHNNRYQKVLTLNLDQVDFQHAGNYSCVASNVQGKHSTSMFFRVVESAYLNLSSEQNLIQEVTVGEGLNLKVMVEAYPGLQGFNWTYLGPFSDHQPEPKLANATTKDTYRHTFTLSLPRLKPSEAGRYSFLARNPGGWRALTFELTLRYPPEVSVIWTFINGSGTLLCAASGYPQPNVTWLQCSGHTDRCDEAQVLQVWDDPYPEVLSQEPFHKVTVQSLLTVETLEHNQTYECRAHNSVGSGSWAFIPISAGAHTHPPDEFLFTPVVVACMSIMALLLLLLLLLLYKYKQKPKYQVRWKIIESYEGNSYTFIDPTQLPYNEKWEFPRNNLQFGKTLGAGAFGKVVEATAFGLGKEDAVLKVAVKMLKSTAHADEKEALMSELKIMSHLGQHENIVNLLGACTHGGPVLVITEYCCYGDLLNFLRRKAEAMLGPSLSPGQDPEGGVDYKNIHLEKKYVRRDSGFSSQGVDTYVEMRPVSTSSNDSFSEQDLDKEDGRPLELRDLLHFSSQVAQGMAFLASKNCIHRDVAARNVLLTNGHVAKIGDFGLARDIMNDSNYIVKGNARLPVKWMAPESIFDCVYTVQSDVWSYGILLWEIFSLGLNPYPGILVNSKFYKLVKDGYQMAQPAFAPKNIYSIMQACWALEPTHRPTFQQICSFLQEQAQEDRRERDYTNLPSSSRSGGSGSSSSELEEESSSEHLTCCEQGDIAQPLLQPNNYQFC
Chain of PDGFRα (P16234 24-1089): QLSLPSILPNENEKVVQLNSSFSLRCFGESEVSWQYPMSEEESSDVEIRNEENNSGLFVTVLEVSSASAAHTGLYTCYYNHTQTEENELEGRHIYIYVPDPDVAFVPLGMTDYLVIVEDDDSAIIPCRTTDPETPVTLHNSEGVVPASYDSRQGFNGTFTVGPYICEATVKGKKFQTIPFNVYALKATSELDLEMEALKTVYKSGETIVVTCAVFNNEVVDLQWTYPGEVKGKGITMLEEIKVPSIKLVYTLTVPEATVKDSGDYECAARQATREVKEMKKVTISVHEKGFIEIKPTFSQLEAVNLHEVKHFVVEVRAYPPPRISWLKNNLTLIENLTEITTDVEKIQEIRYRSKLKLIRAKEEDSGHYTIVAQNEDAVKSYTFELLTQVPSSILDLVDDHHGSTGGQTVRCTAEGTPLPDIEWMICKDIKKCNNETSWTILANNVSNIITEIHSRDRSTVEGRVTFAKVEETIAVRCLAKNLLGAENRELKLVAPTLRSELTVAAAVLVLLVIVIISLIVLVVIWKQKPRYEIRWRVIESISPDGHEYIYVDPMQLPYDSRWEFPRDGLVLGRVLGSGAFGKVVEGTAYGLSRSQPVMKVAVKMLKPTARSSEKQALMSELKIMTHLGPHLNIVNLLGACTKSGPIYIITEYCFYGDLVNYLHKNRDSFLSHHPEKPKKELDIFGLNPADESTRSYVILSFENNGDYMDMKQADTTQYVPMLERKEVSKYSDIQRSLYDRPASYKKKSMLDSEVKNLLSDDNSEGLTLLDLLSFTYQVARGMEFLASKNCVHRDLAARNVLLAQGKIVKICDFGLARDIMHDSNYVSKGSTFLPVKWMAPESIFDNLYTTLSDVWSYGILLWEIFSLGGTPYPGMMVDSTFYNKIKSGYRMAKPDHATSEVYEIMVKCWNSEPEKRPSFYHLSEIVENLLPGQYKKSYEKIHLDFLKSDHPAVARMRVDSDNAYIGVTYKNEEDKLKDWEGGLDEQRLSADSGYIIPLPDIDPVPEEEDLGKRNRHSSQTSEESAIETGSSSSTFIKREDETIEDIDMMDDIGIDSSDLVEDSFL
Chain of FLT3 (P36888 27-993): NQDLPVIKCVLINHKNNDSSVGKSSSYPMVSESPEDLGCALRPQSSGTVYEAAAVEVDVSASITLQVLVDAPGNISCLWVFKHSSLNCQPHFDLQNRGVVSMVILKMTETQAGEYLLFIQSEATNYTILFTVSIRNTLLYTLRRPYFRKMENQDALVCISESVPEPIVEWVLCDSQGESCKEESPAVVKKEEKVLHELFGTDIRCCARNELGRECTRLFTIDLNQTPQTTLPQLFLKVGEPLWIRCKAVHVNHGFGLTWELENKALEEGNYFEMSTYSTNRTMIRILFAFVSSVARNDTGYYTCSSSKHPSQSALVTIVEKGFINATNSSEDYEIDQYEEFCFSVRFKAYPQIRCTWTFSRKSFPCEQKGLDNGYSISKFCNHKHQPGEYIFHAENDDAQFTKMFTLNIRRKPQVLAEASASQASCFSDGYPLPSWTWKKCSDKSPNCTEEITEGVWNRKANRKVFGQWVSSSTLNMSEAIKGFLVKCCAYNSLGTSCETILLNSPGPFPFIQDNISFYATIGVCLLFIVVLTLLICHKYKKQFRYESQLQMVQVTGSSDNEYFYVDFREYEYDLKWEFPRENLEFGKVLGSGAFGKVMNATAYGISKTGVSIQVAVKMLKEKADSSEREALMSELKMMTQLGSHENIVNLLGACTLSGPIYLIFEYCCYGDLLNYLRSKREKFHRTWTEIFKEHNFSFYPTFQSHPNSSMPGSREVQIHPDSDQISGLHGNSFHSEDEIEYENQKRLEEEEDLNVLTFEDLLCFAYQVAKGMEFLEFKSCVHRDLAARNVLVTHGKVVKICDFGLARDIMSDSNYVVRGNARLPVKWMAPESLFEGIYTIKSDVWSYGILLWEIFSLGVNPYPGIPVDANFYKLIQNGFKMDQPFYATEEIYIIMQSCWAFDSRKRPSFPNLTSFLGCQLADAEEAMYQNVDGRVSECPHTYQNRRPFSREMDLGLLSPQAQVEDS

The pIC50 is −log10 of the IC50, conventionally taken in molar units. As to `Cc1ncc(C(=O)Nc2cc(C(=O)Nc3ccc(CC(F)(F)F)cn3)c(F)cc2F)s1` [Example 242, N-[2,4-difluoro-5-[[5-(2,2,2-trifluoroethyl)pyridin-2-yl]carbamoyl]phenyl]-2-methyl-1,3-thiazole-5-carboxamide], the negative logarithm of the IC50 (pIC50) in series [1] was 6.00 to 7.00; in series [2] it was below 6.00; in series [3] it was below 6.00; in series [4] it was below 6.00. Also, the “Percent of total metabolism via bioactivation, Rat hepatocytes” value in [5] was 88%. For the same compound, in series [6], the “Percent of total metabolism via bioactivation, Dog hepatocytes” value is listed as 44%. Moreover, the “Percent of total metabolism via bioactivation, Human hepatocytes” value in series [7] is given as below 1%.
Turning to `COCCc1ccc(NC(=O)c2cc(NC(=O)c3cnc(N)s3)c(C)cc2F)nc1` [Example 245, 2-Amino-N-[4-fluoro-5-[[5-(2-methoxyethyl)pyridin-2-yl]carbamoyl]-2-methylphenyl]-1,3-thiazole-5-carboxamide], the pIC50 in series [1] is above 7.00; in [2], below 6.00; in series [3] it was below 6.00; in [4], below 6.00; in [8], below 6.00; in series [9] (setting [11]) it was above 7.00.
As for `Cc1cc(F)c(C(=O)Nc2ccc(COCC3CC3)cn2)cc1NC(=O)c1cnc(N)s1` [Example 251, 2-Amino-N-[5-[[5-(cyclopropylmethoxymethyl)pyridin-2-yl]carbamoyl]-4-fluoro-2-methylphenyl]-1,3-thiazole-5-carboxamide], the negative logarithm of the IC50 (pIC50) was above 7.00 in series [1]; below 6.00 in series [2]; below 6.00 in series [3]; below 6.00 in series [4]; below 6.00 in series [8]; above 7.00 in series [9] (setting [11]).
Consider `CCc1ccc(NC(=O)c2cc(NC(=O)c3cnc(N)s3)c(C)cc2F)nc1` [Example 255, 2-Amino-N-[5-[(5-ethylpyridin-2-yl)carbamoyl]-4-fluoro-2-methylphenyl]-1,3-thiazole-5-carboxamide], for which the pIC50 in series [1] was above 7.00; in [2], 6.00 to 7.00; in [3] it was 6.00 to 7.00; in series [4] it was 6.00 to 7.00; in series [8], below 6.00; in series [9] (setting [11]), above 7.00.
Consider `CO[C@H](C)c1ccc(NC(=O)c2cc(NC(=O)c3cnc(N)s3)c(C)cc2F)nc1` [Example 256, 2-Amino-N-[4-fluoro-5-[[5-[(1R)-1-methoxyethyl]pyridin-2-yl]carbamoyl]-2-methylphenyl]-1,3-thiazole-5-carboxamide], for which the negative logarithm of the IC50 (pIC50) in [1] is above 7.00; in [2], below 6.00; in series [3] it was 6.00 to 7.00; in series [4] it was below 6.00; in series [8], below 6.00; in [9] (setting [11]), above 7.00.
Turning to `CO[C@@H](C)c1ccc(NC(=O)c2cc(NC(=O)c3cnc(N)s3)c(C)cc2F)nc1` [Example 257, 2-Amino-N-[4-fluoro-5-[[5-[(1S)-1-methoxyethyl]pyridin-2-yl]carbamoyl]-2-methylphenyl]-1,3-thiazole-5-carboxamide], the negative logarithm of the IC50 (pIC50) was above 7.00 in [1]; below 6.00 in [2]; 6.00 to 7.00 in series [3]; below 6.00 in series [4]; below 6.00 in series [8]; above 7.00 in [9] (setting [11]).
In the case of `Cc1cc(F)c(C(=O)Nc2ccc(OC3CC3)nn2)cc1NC(=O)c1cnc(N)s1` [Example 258, 2-Amino-N-[5-[(6-cyclopropyloxypyridazin-3-yl)carbamoyl]-4-fluoro-2-methylphenyl]-1,3-thiazole-5-carboxamide], the negative logarithm of the IC50 (pIC50) in series [1] is above 7.00; in series [2] it was 6.00 to 7.00; in series [3], 6.00 to 7.00; in series [4], 6.00 to 7.00; in series [8], below 6.00; in series [9] (setting [11]) it was above 7.00.
Take `Cc1cc(F)c(C(=O)Nc2ccc(OC(C)C)nn2)cc1NC(=O)c1cnc(N)s1` [Example 259, 2-Amino-N-[4-fluoro-2-methyl-5-[(6-propan-2-yloxypyridazin-3-yl)carbamoyl]phenyl]-1,3-thiazole-5-carboxamide]: the pIC50 was above 7.00 in series [1]; 6.00 to 7.00 in [2]; above 7.00 in [3]; 6.00 to 7.00 in series [4]; below 6.00 in series [8]; above 7.00 in series [9] (setting [12]).
For `COC1(c2ccc(NC(=O)c3cc(NC(=O)c4cnc(N)s4)c(C)cc3F)nc2)CC1` [Example 260, 2-Amino-N-[4-fluoro-5-[[5-(1-methoxycyclopropyl)pyridin-2-yl]carbamoyl]-2-methylphenyl]-1,3-thiazole-5-carboxamide], the negative logarithm of the IC50 (pIC50) in series [1] was above 7.00; in series [2], below 6.00; in series [3], 6.00 to 7.00; in series [4] it was 6.00 to 7.00; in [8], below 6.00; in [9] (setting [12]), above 7.00.
Regarding `Cc1ccc(-c2noc([C@H]3C[C@@H]3F)n2)cc1NC(=O)c1cnc2ccccn12` [labuxtinib, reference compound], in [5], the “Percent of total metabolism via bioactivation, Rat hepatocytes” value came out at 45%. In [6], the “Percent of total metabolism via bioactivation, Dog hepatocytes” value amounted to 17%. In addition, in [10], the “Percent of total metabolism via bioactivation, Monkey hepatocytes” value is listed as 31%. The “Percent of total metabolism via bioactivation, Human hepatocytes” value in series [7] is 24%.
